Data taken from paper PMC6277767, “Broad and Region-Specific Impacts of the Synthetic Cannabinoid CP 55,940 in Adolescent and Adult Female Mouse Brains” (Frontiers in Molecular Neuroscience, 2018).

Test system: CD1 female mouse brain lipidome
Assay: Brain-region lipid levels (HPLC/MS/MS lipidomics) 2 h after single i.p. 3 mg/kg CP 55,940 vs vehicle
Format: in vivo
Parameters: N-arachidonoyl phenylalanine level, Mean / N-stearoyl tryptophan level, Mean / N-stearoyl proline level, Mean / N-stearoyl leucine level, Mean / N-stearoyl phenylalanine level, Mean / N-stearoyl serine level, Mean / N-stearoyl methionine level, Mean: unit: moles per gram
Conditions: hippocampus
Method: The Bloomington Institutional Animal Care and Use Committee of Indiana University reviewed and approved the animal procedures. Female mice from the CD1 strain were utilized to match our study examining THC’s effects on the brain lipidome ([Leishman et al., 2018]). Mice were given a single i.p. injection of either 3 mg/kg CP or 1:1:18 cremophor:ethanol:saline vehicle (please refer to the section “3 mg/kg CP Is Relevant for Synthetic Cannabinoid Abuse and Has Stronger Effects on the Female Mouse Brain Lipidome During Adolescence” for a justification of dose and use of female mice). Three different age groups were given injections: PND 35 and PND 50 adolescents, and adult mice (PND 113). At least eight mice in each age group received CP and at least eight received vehicle. Matching the THC study time course ([Leishman et al., 2018]), mice were sacrificed via rapid decapitation 2 h after injection. Brains were immediately removed and flash-frozen in liquid nitrogen, and then stored at -80°C until dissections were performed. Brains were dissected on an ice-cold dissection plate into the following regions: STR, HIPP, CER, THAL, CTX, HYP, MID, and STEM. These abbreviations for these brain areas will be used exclusively when discussing the results generated by these specific dissections. Each dissected area was immediately placed in liquid nitrogen and then stored at -80°C until used for lipid extraction.
Tissue extracts were performed as previously described ([Bradshaw et al., 2006]; [Stuart et al., 2013]; [Raboune et al., 2014]; [Leishman et al., 2016a],[b], [2017], [2018]). First, samples were shock frozen in liquid nitrogen, weighed, and transferred to a centrifuge tube. The mass of the largest sample was multiplied by 50 to determine how many milliliters of HPLC-grade methanol (Fisher, Fair Lawn, NJ, United States) to add. Then, samples were spiked with 500 pmol deuterium-labeled NAGly (d8NAGly; Cayman Chemical, Ann Arbor, MI, United States). Samples were placed on ice in darkness for 2 h then individually homogenized and centrifuged at 19,000 × g for 20 min at 20°C. Supernatants were diluted with HPLC water (purified in house) to make a solution of 75% water, 25% supernatant. Lipids were partially purified on C18 solid phase extraction columns (Agilent, Palo Alto, CA, United States). A series of four elutions with 1.5 mL of 60%, 75%, 85%, and 100% methanol were collected ([Stuart et al., 2013]; [Leishman et al., 2016a],[b], [2018]).
As previously described ([Bradshaw et al., 2006]; [Tan et al., 2006]; [Smoum et al., 2010]; [Stuart et al., 2013]; [Tortoriello et al., 2013]; [Raboune et al., 2014]; [Leishman et al., 2016a],[b], [2017], [2018]), samples were analyzed using an Applied Biosystems API 3000 triple quadrupole mass spectrometer with electrospray ionization (Foster City, CA, United States). Using an Agilent XDB-C18 reversed phase analytical column and optimized mobile phase gradients, 20 μL from each elution were chromatographed. Two Shimadzu 10ADvp pumps (Columbia, MD, United States) provided the pressure for gradient elution. Mobile phase A: 20% methanol, 80% water (v/v) and 1 mM ammonium acetate (Sigma, St. Louis, MO, United States). Mobile phase B: 100% methanol, 1 mM ammonium acetate. Every method run began with 0% mobile phase B, reached 100% mobile phase B flowing at 0.2 mL/min, and gradually returned to 0% mobile phase B.
This screening library will be referred to as the lipidome when discussing data from this study. HPLC/MS/MS data were analyzed using Analyst software (Applied Biosystems) ([Bradshaw et al., 2006]; [Tan et al., 2006]; [Stuart et al., 2013]; [Tortoriello et al., 2013]; [Raboune et al., 2014]; [Leishman et al., 2016a],[b], [2017], [2018]). Chromatograms (Supplementary Figure 3) were generated by determining the retention time of analytes from the analytical column with a [M-1] or [M+1] parent peak and a fragmentation peak corresponding to the programmed values. […]

[1] = PND 35, 3 mg/kg CP 55,940 vs vehicle
[2] = PND 35 WT female mice, 3mg/kg CP 55,940

`CCCCCCC(C)(C)c1ccc([C@@H]2C[C@H](O)CC[C@H]2CCCO)c(O)c1` [CP 55,940] was tested, and the “THC level, Mean” value (adult, 3 mg/kg CP 55,940) was “BDL”, the “phosphoLEA: Direction (relative to Veh)” value (adult, 3 mg/kg CP 55,940) was “↑” and the “phosphoLEA: Magnitude (x Veh level)” value (adult, 3 mg/kg CP 55,940) was 1.45 x Veh level. The “2-arachidonoyl glycerol: Direction” value [1] was “↓”, the “2-arachidonoyl glycerol: Magnitude” value [1] was 0.79 and the “2-linoleoyl glycerol: Direction” value [1] was “↓”. For the same molecule, the “2-linoleoyl glycerol: Magnitude” value [1] was 0.63, the “2-oleoyl glycerol: Direction” value [1] was “↓” and the “2-oleoyl glycerol: Magnitude” value [1] was 0.82. For the same molecule, the “6-ketoPGF1α: Direction” value [1] was “↑”, the “6-ketoPGF1α: Magnitude” value [1] was 1.32 and the “Arachidonic acid: Direction” value [1] was “↓”. The “Arachidonic acid: Magnitude” value [1] was 0.84, the “Linoleic acid: Direction” value [1] was “↓” and the “Linoleic acid: Magnitude” value [1] was 0.77. For the same molecule, the “N-arachidonoyl GABA: Direction” value [1] was “↓”, the “N-arachidonoyl GABA: Magnitude” value [1] was 0.66 and the “N-arachidonoyl alanine: Direction” value [1] was “↓”. The “N-arachidonoyl alanine: Magnitude” value [1] was 0.76, the “N-arachidonoyl ethanolamine: Direction” value [1] was “↓” and the “N-arachidonoyl ethanolamine: Magnitude” value [1] was 0.82. The “N-arachidonoyl glycine: Direction” value [1] was “↓”, the “N-arachidonoyl glycine: Magnitude” value [1] was 0.86 and the “N-arachidonoyl phenylalanine: Direction” value [1] was “↓”. The “N-arachidonoyl phenylalanine: Magnitude” value [1] was 0.76, the “N-arachidonoyl serine: Direction” value [1] was “↓” and the “N-arachidonoyl serine: Magnitude” value [1] was 0.49. For the same molecule, the “N-arachidonoyl taurine: Direction” value [1] was “↓”, the “N-arachidonoyl taurine: Magnitude” value [1] was 0.81 and the “N-docosahexaenoyl GABA: Direction” value [1] was “↓”. For the same molecule, the “N-docosahexaenoyl GABA: Magnitude” value [1] was 0.52, the “N-docosahexaenoyl alanine: Direction” value [1] was “↓” and the “N-docosahexaenoyl alanine: Magnitude” value [1] was 0.76. The “N-docosahexaenoyl ethanolamine: Direction” value [1] was “↓”, the “N-docosahexaenoyl ethanolamine: Magnitude” value [1] was 0.71 and the “N-docosahexaenoyl glycine: Direction” value [1] was “↓”. For the same molecule, the “N-docosahexaenoyl glycine: Magnitude” value [1] was 0.83, the “N-docosahexaenoyl leucine: Direction” value [1] was “↑” and the “N-docosahexaenoyl leucine: Magnitude” value [1] was 1.41. The “N-docosahexaenoyl serine: Direction” value [1] was “↓”, the “N-docosahexaenoyl serine: Magnitude” value [1] was 0.74 and the “N-linoleoyl GABA: Direction” value [1] was “↓”. The “N-linoleoyl GABA: Magnitude” value [1] was 0.55, the “N-linoleoyl alanine: Direction” value [1] was “↓” and the “N-linoleoyl alanine: Magnitude” value [1] was 0.82. The “N-oleoyl GABA: Direction” value [1] was “↓”, the “N-oleoyl GABA: Magnitude” value [1] was 0.59 and the “N-oleoyl alanine: Direction” value [1] was “↓”. For the same molecule, the “N-oleoyl alanine: Magnitude” value [1] was 0.75, the “N-oleoyl ethanolamine: Direction” value [1] was “↓” and the “N-oleoyl ethanolamine: Magnitude” value [1] was 0.77. For the same molecule, the “N-oleoyl glycine: Direction” value [1] was “↓”, the “N-oleoyl glycine: Magnitude” value [1] was 0.87 and the “N-oleoyl methionine: Direction” value [1] was “↓”. The “N-oleoyl methionine: Magnitude” value [1] was 0.68, the “N-oleoyl valine: Direction” value [1] was “↑” and the “N-oleoyl valine: Magnitude” value [1] was 1.27. The “N-palmitoyl alanine: Direction” value [1] was “↓”, the “N-palmitoyl alanine: Magnitude” value [1] was 0.85 and the “N-palmitoyl ethanolamine: Direction” value [1] was “↓”. For the same molecule, the “N-palmitoyl ethanolamine: Magnitude” value [1] was 0.79, the “N-palmitoyl leucine: Direction” value [1] was “↑” and the “N-palmitoyl leucine: Magnitude” value [1] was 1.31. The “N-palmitoyl phenylalanine: Direction” value [1] was “↑”, the “N-palmitoyl phenylalanine: Magnitude” value [1] was 1.26 and the “N-palmitoyl tyrosine: Direction” value [1] was “↑”. For the same molecule, the “N-palmitoyl tyrosine: Magnitude” value [1] was 1.29, the “N-palmitoyl valine: Direction” value [1] was “↑” and the “N-palmitoyl valine: Magnitude” value [1] was 1.24. For the same molecule, the “N-stearoyl GABA: Direction” value [1] was “↓”, the “N-stearoyl GABA: Magnitude” value [1] was 0.77 and the “N-stearoyl alanine: Direction” value [1] was “↓”. For the same molecule, the “N-stearoyl alanine: Magnitude” value [1] was 0.79, the “N-stearoyl glycine: Direction” value [1] was “↓” and the “N-stearoyl glycine: Magnitude” value [1] was 0.87. For the same molecule, the “N-stearoyl valine: Direction” value [1] was “↑”, the “N-stearoyl valine: Magnitude” value [1] was 1.39 and the “Oleic acid: Direction” value [1] was “↓”. The “Oleic acid: Magnitude” value [1] was 0.82, the “PGF2α: Direction” value [1] was “↑” and the “PGF2α: Magnitude” value [1] was 1.28. The “2-arachidonoyl glycerol level, Mean” value [2] was 2.47E-10, the “2-linoleoyl glycerol level, Mean” value [2] was 1.2E-10 and the “2-oleoyl glycerol level, Mean” value [2] was 9.43E-10. The “2-palmitoyl glycerol level, Mean” value [2] was 7.71E-10, the “6-ketoPGF1α level, Mean” value [2] was 1.92E-11 and the “11-OH-THC level, Mean” value [2] was “BDL”. For the same molecule, the “11-nor-9-carboxyTHC level, Mean” value [2] was “BDL”, the “Arachidonic acid level, Mean” value [2] was 4.25E-09 and the “Cannabidiol level, Mean” value [2] was “BDL”. For the same molecule, the “Linoleic acid level, Mean” value [2] was 9.72E-10, the “N- stearoyl valine level, Mean” value [2] was 8.48E-13 and the “N-arachidonoyl GABA level, Mean” value [2] was 2.17E-11. The “N-arachidonoyl alanine level, Mean” value [2] was 1.79E-11, the “N-arachidonoyl dopamine level, Mean” value [2] was “BDL” and the “N-arachidonoyl ethanolamine level, Mean” value [2] was 4.75E-11. For the same molecule, the “N-arachidonoyl glycine level, Mean” value [2] was 6.69E-11, the “N-arachidonoyl methionine level, Mean” value [2] was “PISSR” and the “N-arachidonoyl phenylalanine level, Mean” value [2] was 1.21E-12. For the same molecule, the “N-arachidonoyl proline level, Mean” value [2] was “BDL”, the “N-arachidonoyl serine level, Mean” value [2] was 8.58E-12 and the “N-arachidonoyl taurine level, Mean” value [2] was 2.18E-10.
